“Also recorded” adds a separate entry of the source.
Tests used:
[1] = target: T1, type I receptors (kidney MR) (Rattus norvegicus, UniProt P22199); experiment: tracer binding (Scatchard) to kidney type I sites (MR); settings: for nH, type I: Hill coefficient; for Q, type I: apparent number of sites
T1 construct: kidneys as a source of MR; from tissue; host or cells: kidney cytosol, adrenalectomized male Sprague-Dawley rats
T1 sequence (P22199 1-981): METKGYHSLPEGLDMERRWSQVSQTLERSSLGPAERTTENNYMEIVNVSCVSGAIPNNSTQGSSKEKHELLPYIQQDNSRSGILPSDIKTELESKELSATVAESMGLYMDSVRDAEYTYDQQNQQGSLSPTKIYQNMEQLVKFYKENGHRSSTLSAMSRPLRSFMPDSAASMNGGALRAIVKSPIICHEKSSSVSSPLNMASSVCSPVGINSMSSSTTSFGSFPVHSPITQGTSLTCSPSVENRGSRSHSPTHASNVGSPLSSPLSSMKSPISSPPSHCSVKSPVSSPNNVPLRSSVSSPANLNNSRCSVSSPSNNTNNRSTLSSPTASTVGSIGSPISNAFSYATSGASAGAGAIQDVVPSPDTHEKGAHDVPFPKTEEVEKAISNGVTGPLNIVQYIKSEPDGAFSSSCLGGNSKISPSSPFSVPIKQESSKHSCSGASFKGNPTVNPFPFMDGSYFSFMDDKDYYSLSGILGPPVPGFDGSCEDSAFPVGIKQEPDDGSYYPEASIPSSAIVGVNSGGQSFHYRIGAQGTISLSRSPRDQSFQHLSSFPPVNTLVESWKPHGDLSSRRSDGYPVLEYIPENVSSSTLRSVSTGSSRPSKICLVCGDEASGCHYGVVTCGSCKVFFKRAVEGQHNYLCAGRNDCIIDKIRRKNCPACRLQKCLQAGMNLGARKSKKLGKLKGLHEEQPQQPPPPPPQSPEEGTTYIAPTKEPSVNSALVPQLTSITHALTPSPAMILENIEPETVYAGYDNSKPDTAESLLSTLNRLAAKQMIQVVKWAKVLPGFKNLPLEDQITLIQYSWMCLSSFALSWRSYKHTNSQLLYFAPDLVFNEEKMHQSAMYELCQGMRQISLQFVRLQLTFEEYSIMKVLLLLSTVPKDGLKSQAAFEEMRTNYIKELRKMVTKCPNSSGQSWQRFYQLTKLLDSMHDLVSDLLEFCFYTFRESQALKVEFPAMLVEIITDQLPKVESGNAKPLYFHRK
Protocol: Binding Assay: Adrenalectomized male Sprague-Dawley rats were bled to death by heart puncture. Cold 0.9% NaCI was injected profusely through the aorta until organs were completely blanched. Thymuses were used as a source of GR and kidneys as a source of MR. Homogenization and incubation conditions were performed as previously described, (14) and (15), respectively. Briefly, homogenates performed in cold TEGM buffer at pH 7.4 (0.1 M Tris-HCl, 10 mM EDTA, 10 mM α-mercaptoethanol, 20 mM Na2 MoO4, 25% glycerol, 0.1 mM PMSF, 2.0 TIU/ml aprotinin and 1 mg% Leupeptin) were centrifuged at 37,000 rev. for 30 min at 0° C. Supernatants from this centrifugation are referred to as "cytosol". […] (^3 H)-P4 binding to uterus PR was assayed on immature female rats according to Jordan et al (16). […]
(§1) To study the binding of ALDO to kidney- MR without the competitive influence of the relatively more abundant GR, GR was removed with the specific ligand RU28362 (7).

[2] = test system: tyrosine aminotransferase (TAT) induction in rat hepatocytes; experiment: TAT induction in rat hepatocytes (agonism); assay type: cell-based; settings: for increase of TAT activity: 100 nM steroid, rat hepatocytes
Protocol: (§2) FIG. 3: Biological Properties of 21OH-6OP: A) Glycogen storage in vivo: 100 μg steroid/100 g body weight of male rats were injected as indicated in Example 1. Liver glycogen was purified and quantified with Krisman's reagent (17). Controls were injected with vehicle. Results are expressed as means±SEM (n=6). (*): different from controls P<0.02. B) TAT induction in vitro: rat hepatocytes were incubated for 5 h in HAM-F12 medium in the presence of 100 nM steroid and TAT activity was measured. Results are expressed as percentage of enzyme activity (means±SEM, n=4) over controls incubated in the presence of vehicle. (*) different from controls P<0.01. C) Sodium-retaining activity: adrenalectomized rats were treated with the indicated dose of steroids. Results are expressed as the ratio of sodium-excretion rates of steroid-injected animals to the excretion rates of rats injected with vehicle.
(§3) Hatched bars represent incubations performed in the presence of vehicle instead of agonist.
(§4) Bioassay : Liver glycogen deposition was measured on adrenalectoniized male Sprague-Dawley rats (180-220 g) as follows: steroids were dissolved in ethanol/propylene glycol/0.9% NaCl solution (3:3:34) and 100 μg steroid/l00 g body weight were injected i.m. the previous night. On the morning of the experiment this dose was reinjected intraperitoneally. Three hours later the rats were killed by cervical dislocation and livers were immediately removed. Glycogen purification and quantification were carried out according to Krisman's method (17). Na^+ -retaining properties were measured as described (5). Tyrosine aminotransferase (TAT) was induced in rat hepatocytes isolated by the procedure of Fry et al (18). TAT activity was determined according to Granner and Tomkins (19).
(§5) The basal TAT activity in hepatocytes, denominated control in the figure, was measured by adding vehicle (final concentration: 0.2% ethanol) to the culture. […] 2.5 μM 21OH-6OP inhibits 80% of TAT induction when concubated with B or DXM.

liver glycogen = liver glycogen deposition in vivo, adrenalectomized rats; set-up: species or system rat; settings: 100 μg steroid/100 g body weight; for liver glycogen deposits: compared to ADX controls
Protocol: as §2, §4

type II sites (GR) = target: T2, type II sites (GR) (Rattus norvegicus, UniProt P06536); experiment: tracer binding (Scatchard) to kidney type II sites (GR); settings: no competitor
T2 construct: type II receptors in kidney cytosols; from tissue; host or cells: kidney cytosol, adrenalectomized male Sprague-Dawley rats
T2 sequence (P06536 1-795): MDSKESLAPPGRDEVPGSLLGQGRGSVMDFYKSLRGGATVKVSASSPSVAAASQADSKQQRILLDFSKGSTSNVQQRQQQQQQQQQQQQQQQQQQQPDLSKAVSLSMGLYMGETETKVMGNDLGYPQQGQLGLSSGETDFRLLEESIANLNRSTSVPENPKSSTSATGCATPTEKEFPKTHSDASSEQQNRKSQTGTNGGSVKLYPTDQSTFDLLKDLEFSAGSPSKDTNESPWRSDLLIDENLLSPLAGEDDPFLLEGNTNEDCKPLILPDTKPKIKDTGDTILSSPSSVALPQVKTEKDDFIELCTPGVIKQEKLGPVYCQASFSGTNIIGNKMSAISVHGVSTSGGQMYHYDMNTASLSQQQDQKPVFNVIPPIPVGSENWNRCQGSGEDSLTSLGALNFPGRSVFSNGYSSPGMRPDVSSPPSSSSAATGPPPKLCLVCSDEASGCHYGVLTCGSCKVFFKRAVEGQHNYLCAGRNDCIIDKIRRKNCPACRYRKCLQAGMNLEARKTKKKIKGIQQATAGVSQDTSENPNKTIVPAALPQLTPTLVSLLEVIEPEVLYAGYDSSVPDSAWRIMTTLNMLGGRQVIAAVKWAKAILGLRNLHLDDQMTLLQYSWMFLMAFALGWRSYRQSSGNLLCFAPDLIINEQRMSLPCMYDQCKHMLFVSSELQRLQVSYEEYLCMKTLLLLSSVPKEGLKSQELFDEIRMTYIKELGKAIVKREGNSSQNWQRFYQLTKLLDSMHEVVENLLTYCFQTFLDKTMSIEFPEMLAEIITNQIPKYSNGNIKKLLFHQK
Protocol: Binding Assay: Adrenalectomized male Sprague-Dawley rats were bled to death by heart puncture. Cold 0.9% NaCI was injected profusely through the aorta until organs were completely blanched. Thymuses were used as a source of GR and kidneys as a source of MR. Homogenization and incubation conditions were performed as previously described, (14) and (15), respectively. Briefly, homogenates performed in cold TEGM buffer at pH 7.4 (0.1 M Tris-HCl, 10 mM EDTA, 10 mM α-mercaptoethanol, 20 mM Na2 MoO4, 25% glycerol, 0.1 mM PMSF, 2.0 TIU/ml aprotinin and 1 mg% Leupeptin) were centrifuged at 37,000 rev. for 30 min at 0° C. Supernatants from this centrifugation are referred to as "cytosol". […] (^3 H)-P4 binding to uterus PR was assayed on immature female rats according to Jordan et al (16).
as §1
The calculated Kd for type I sites in different conditions ranges between 0.4 and 1 nM (Table 1) which is at least eighty times higher than the affinity for type II sites.

[3] = test system: Na^+ retention (sodium-excretion rate); settings: earlier study, ref (5); cited from earlier work
[4] = test system: TAT induction in hepatocytes (GR); experiment: antagonism of TAT induction by DXM or B in hepatocytes; assay type: cell-based, rat; settings: 2.5 μM steroid
Protocol: as §3, §4, §5

[5] = test system: Na^+ retention (sodium-excretion rate); experiment: Na^+ -retaining activity, adrenalectomized rats; assay type: in vivo, rat
Protocol: as §2, §4

hippocampus type I MR = settings: ref (9); cited from earlier work
[6] = test system: inoperable cases of nonpituitary Cushing's syndrome; settings: cited from earlier work
PR = settings: background; cited from earlier work
[7] = in the presence of 2.5 μM 21OH-6OP
[8] = in the presence of 10 μM RU-28362

For `CC#C[C@]1(O)CC[C@H]2[C@@H]3C=C(C)C4=CC(=O)C=C[C@]4(C)[C@H]3[C@@H](O)C[C@@]21C` [RU28862], which “reduction of (^3 H)-ALDO Scatchard plot to type I sites” value ([1]; 1.0 μM RU28862, selective MR ligand ZK91587) is on record?
The value was “reduces the plot to a single line corresponding to type I sites”.

Which results are given for `C[C@]12C[C@H](O)[C@H]3[C@@H](CCC4=CC(=O)CC[C@@]43C)[C@@H]1CC[C@@H]2C(=O)CO` [B, corticosterone]?
increase of TAT activity [2]: between five and six times; liver glycogen deposits (liver glycogen): between three and four times more

Which “increase of TAT activity” value [2] does the source give for `C[C@@H]1C[C@H]2[C@@H]3CCC4=CC(=O)C=C[C@]4(C)[C@@]3(F)[C@@H](O)C[C@]2(C)[C@@]1(O)C(=O)CO` [DXM, dexamethasone] here?
Its value is “between five and six times”.

And the liver glycogen deposits (liver glycogen)?
The liver glycogen deposits was “between three and four times more”.

What does the source list for `C[C@]12CCC(=O)C=C1CC[C@@H]1[C@@H]2[C@@H](O)C[C@]2(C=O)[C@@H](C(=O)CO)CC[C@@H]12` [(^3 H)-ALDO, Aldosterone]?
nH, type I [1, 7]: 0.88; nH, type I [1, 8]: 0.90; nH, type I ([1]; no competitor): 0.97; Q, type I [1, 7]: 110 fmol/mg; Q, type I [1, 8]: 124.4 fmol/mg; Q, type I ([1]; no competitor): 104 fmol/mg; nH, type II (type II sites (GR); Hill coefficient): 0.86; Q, type II (type II sites (GR); apparent number of sites): 2900 fmol/mg; Kd (type II sites (GR)): 64.4 nM

For `CC(=O)[C@H]1CC[C@H]2[C@@H]3C[C@H]4OC[C@@]5(CCC(=O)C=C45)[C@H]3CC[C@]12C` [6OP, 6,19-oxidoprogesterone], which “TAT induction (in words)” value ([2]; FIGS. 3-B and 4 (hatched bars), no agonist added) is on record?
The value was “neither 6OP nor 21OH-6OP evoke these responses; also recorded: Neither 6OP nor 21OH-6OP facilitate TAT induction”.

And the GC properties ([2]; preliminary studies, test not specified)?
The GC properties was “lack of GC properties”.

What about the “Na^+ retaining properties” value [3] of the same molecule?
The value was “exhibited practically no Na^+ retaining properties”.

And the “antagonism of TAT induction by B (in words)” value ([4]; 100 nM B)?
The value was “significantly different (P<0.01) from the basal activity”.

What about the “antagonism of TAT induction by DXM (in words)” value ([4]; 100 nM DXM) of the same molecule?
Its value is “significantly different (P<0.01) from the basal activity”.

And the “GC response: liver glycogen” value (liver glycogen; FIG. 3-A)?
The value was “neither 6OP nor 21OH-6OP evoke these responses”.

And the “Na^+ -retaining (MC) properties (in words)” value ([5]; FIG. 3-C)?
The value was “weak Na^+ -retainer; also recorded: then loosing activity at still higher doses”.

What about the “maximum Na^+ retention” value ([5]; maximum of parabolic dose-response, at high doses) of the same molecule?
The value was 50%.

Which results are given for `COC(=O)[C@@H]1CC2=CC(=O)CC[C@]2(C)[C@H]2CC[C@@]3(C)[C@@H]([C@@H]4C[C@@H]4[C@@]34CCC(=O)O4)[C@H]12` [(^3 H)-ZK91587]?
nH, type I ([1]; no competitor): 0.91; Q, type I ([1]; no competitor): 98 fmol/mg; Kd ([1]; no competitor): 0.42 nM; binding to hippocampus type I MR (hippocampus type I MR): hippocampus type I MR (9)

With `CC#C[C@]1(O)CC[C@H]2[C@@H]3CCC4=CC(=O)CCC4=C3[C@@H](c3ccc(N(C)C)cc3)C[C@@]21C` [RU38486] as the molecule, how does the “dose needed for effectiveness” value [6] read?
Its value is 20-800 mg per day.

What about the antiprogestin activity (PR) of the same molecule?
Its antiprogestin activity is “strong antiprogestin activity”.

Source: US6303591A, “21-hydroxy-6,19-oxidoprogesterone (21OH-6OP) and its use as medicament for treating excess of glucocorticoids” (Applied Research Systems ARS Holding NV, priority 1997, dated 2001)
